According to patent US11673916B2, “Neuroprotective peptides and methods of their use” (University of Pittsburgh—Of the Commonwealth System of …, priority 2020, dated 2023):

Test system: MCAo mouse model of ischemic stroke
Experiment: Murine neurological score (MNS) after MCAo
Type: in vivo
Settings: 50 minutes left MCAo, IP injection at one and six hours post-reperfusion, versus scrambled control (FIG. 6E)
Description: To analyze neurological deficits following MCA stroke, testing was performed by a blinded experimenter on additional cohorts, both at baseline (all initial scores were 0) and on post-stroke days 1, 2, 3, 5, 7, 10, 14, 21, 28, 35, and 42. An objective murine neurological score (Table 3) was assigned on each date, ranging from 0 (no neurological deficit) to 8 (stroke-related death) (Yeh et al., J Neurosci. 37: 5648-5658, 2017).
Twenty-four hours following cerebral reperfusion after MCAo, total infarct ratios were analyzed (FIG. 6B) in tetrazolium chloride-stained brain sections (FIGS. 6B and 6C). […] Preparation of peptides, MCAo surgery and injection, as well as infarct analysis were all randomized and performed blindly. A second cohort of mice was subjected to 50-minute MCAo, followed by TAT-DP-2 or TAT-Sc-2 injection at one and six-hours post-reperfusion (FIG. 6A). A different, blinded observer then analyzed each animal and assigned an objective murine neurological score (MNS; Table 3) to each mouse over a 42-day period. As the MNS is based solely on characteristic motor deficits developed following left MCAo, all animals initially scored zero on the scale.

YGRKKRRQRRRSIDSFTS [TAT-DP-2, TAT-linked declustering peptide 2]
murine neurological score (MNS) over 42 days post-MCAo: significant preservation of favorable neurological score
